Measurements published in patent US8911605B2, “Method for antibiotic susceptibility testing and determining minimum inhibitory concentration of the antibiotic” (National Cheng Kung University, priority 2011, dated 2014).
Converted amounts (≈) assume the structure as drawn.

Tests used:
E. coli ATCC 25922 [1] = experiment: Dielectrophoretic test (cell elongation, crossover frequency); assay type: cell-based, Escherichia coli; conditions: for dielectrophoretic behaviour and cell elongation: alternating current frequency 600 kHz
Procedure: Phosphate-buffered saline (PBS) containing 137 mM NaCl, 2.7 mM KCl, 4.3 mM Na2HPO4, and 1.47 mM KH2PO4 at pH 7.4 was prepared. An oral β-lactam antibiotic, cephalexin (Sigma, USA), which generally is used in the treatment of urinary tract infection (UTI), was dissolved in 1×PBS and prepared into a stock concentration of 1024 μg/mL. This stock concentration was diluted with trypticase soy broth (TBS) into 4 μg/mL and 32 μg/mL.
Among different cell lines of Escherichia coli causing urinary infection, E. coli ATCC 25922 was selected and cultured with TBS under shaking at 37° C. Then, the bacterial concentration of the culture suspensions was adjusted to 1.5×10^6 cells/ml by a densitometer (VITEK 2, BioMérieux).
(§1) The bacterial suspension (100 μl) and TBS culture media (containing the antibiotic at different concentrations, 900 μl) were mixed ([…]) and incubated at 37° C. in a shaking incubator for 60 minutes. After the treatment, the bacterial suspensions (500-1000 μl) were centrifugated at 3000-5000 rpm for 3-5 minutes. The supernatant of the bacterial suspensions was removed. Finally, 0.2 M 4-(2-hydroxyethyl)-1-piperazineethanesulfonic acid (HEPES) buffer (500 μl, σ=3 mS/cm, Invitrogen 15630) was added to the remaining bacteria and the formed bacterial suspensions were shaken using a vortex mixer (Shin Kwang, Taiwan) for 30 seconds to avoid aggregation of the bacteria for the following dielectrophoretic tests.
(§2) The bacterial suspensions (5 μl) were pipetted into a sample well of the chip of Preparation Example 1. The electrode array was then connected to a function generator (Fluke 284 USA) and supplied with an alternating current signal or dielectrophoresis. The frequency of E. coli migrating from the electrode center to the electrode edge, was determined as crossover frequency (cof). During dielectrophoresis, the images were observed and recorded through an inverted microscope (Olympus IX70, Japan) and a CCD camera (Microfire, Optronics).
In the same manner as that of Example 1, the antibiotic solutions at 1 μg/mL, 2 μg/mL, 4 μg/mL, 8 μg/mL, 16 μg/mL, 32 μg/mL, and 64 μg/mL were prepared and their action periods of time were 30, 60, and 120 minutes. In addition, the chip of Preparation Example 2 was used in the analysis. For measurement of the cell length of E. coli during dielectrophoresis, when the bacteria were straightly arranged on an ITO quadruple electrode by field-induced dielectrophoretic force, the cell length was analyzed by the image software (FreePlus32).
(§3) In the same manner as that of Example 1, a cefazolin solution at 2 μg/mL was prepared and used to act on E. coli ATCC 25922, w958, and BCRC 15501 for 120 minutes for the following dielectrophoretic testing. Among these cell lines, E. coli w958 from National Cheng Kung University Hospital in Taiwan is a drug-resistant bacterium isolated from clinical samples.

E. coli w958 [2] = experiment: Dielectrophoretic test (cell elongation); assay type: cell-based, Escherichia coli; conditions: cefazolin 2 μg/mL, 120 minutes
Procedure: as §1, §2, §3

E. coli BCRC 15501 [3] = experiment: Dielectrophoretic test (cell elongation); assay type: cell-based, Escherichia coli; conditions: cefazolin 2 μg/mL, 120 minutes
Procedure: as §1, §2, §3

E. coli w958 [4] = experiment: Conventional broth dilution method; assay type: cell-based; conditions: Escherichia coli, 0-16 μg/mL tested, read-out: inhibitory concentration (MIC)
Procedure: (§4) In order to confirm that the results from Example 3 of the present invention are not different from those from a conventional method, a broth dilution method was carried out on E. coli ATCC 25922, w958, and BCRC 15501 at 0 μg/mL, 0.5 μg/mL, 1 μg/mL, 2 μg/mL, 4 μg/mL, 8 μg/mL, 16 μg/mL of cefazolin. The results are shown in FIGS. 6 (a) to (c), wherein No denotes no bacteria.

E. coli BCRC 15501 [5] = experiment: Conventional broth dilution method; assay type: cell-based; conditions: Escherichia coli, BCRC15501, 0-16 μg/mL tested, read-out: inhibitory concentration (MIC)
Procedure: as §4

E. coli ATCC 25922 [6] = experiment: Conventional broth dilution method; assay type: cell-based; conditions: Escherichia coli, ATCC25922, 0-16 μg/mL tested, read-out: inhibitory concentration (MIC)
Procedure: as §4

E. coli = experiment: Conventional agar dilution method; assay type: cell-based; conditions: Escherichia coli
Description: In order to confirm that the MIC determined in Example 2 of the present invention is not different from that determined in conventional methods, an agar dilution method was used to determine the MIC of cephalexin to E. coli.

Row | SMILES | cell elongation (E. coli ATCC 25922 [1]; cefazolin 2 μg/mL, 120 minutes) | drug resistance of the bacterium (E. coli ATCC 25922 [1]; cefazolin 2 μg/mL, 120 minutes) | drug resistance of the bacterium (E. coli w958 [2]) | morphological cell elongation (E. coli w958 [2]) | cell elongation (E. coli BCRC 15501 [3]) | drug resistance of the bacterium (E. coli BCRC 15501 [3]) | MIC (E. coli w958 [4]) [µg/mL] | MIC (E. coli BCRC 15501 [5]) [µg/mL] | MIC (E. coli ATCC 25922 [6]) [µg/mL] | MIC (E. coli) [µg/mL] | crossover frequency (cof) (E. coli ATCC 25922 [1]; 32 μg/mL for 60 minutes) | cell length (E. coli ATCC 25922 [1]; 1-64 μg/mL, 30, 60, 120 minutes, FIGS. 3 (a) and (c)) | MIC (E. coli ATCC 25922 [1]; Escherichia coli, ATCC25922, 1 h, determined by dielectrophoresis, 60 minutes, read-out: minimum inhibitory concentration (MIC)) [µg/mL] | morphological cell elongation (E. coli ATCC 25922 [1]; FIG. 2 (c), text prints 60 minutes, figure legend 120 minutes) | cell elongation (E. coli ATCC 25922 [1]; antibiotic 4 μg/ml, 60 minutes, alternating current frequency 4 MHz) | dielectrophoretic behaviour and cell elongation (E. coli ATCC 25922 [1]; antibiotic 4 μg/ml, 60 minutes) | cell elongation (E. coli ATCC 25922 [1]; antibiotic 32 μg/ml for 1 hour, alternating current frequency 4 MHz) | dielectrophoretic behaviour and cell elongation (E. coli ATCC 25922 [1]; antibiotic 32 μg/ml for 1 hour) | morphological changes in bacteria (E. coli ATCC 25922 [1]; antibiotic treatment for 30 minutes, FIG. 2 (a)) | morphological cell elongation (E. coli ATCC 25922 [1]; antibiotic treatment for 60 minutes, FIG. 2 (b))
1 | Cc1nnc(SCC2=C(C(=O)O)N3C(=O)[C@@H](NC(=O)Cn4cnnn4)[C@H]3SC2)s1 [cefazolin] | obvious cell elongation occurs | not resistant to cefazolin | resistant to cefazolin | morphological cell elongation is unobvious | obvious cell elongation occurs | not resistant to cefazolin | > 16 | 2 (≈ 4.4 µM) | 2 (≈ 4.4 µM) |  |  |  |  |  |  |  |  |  |  | 
2 | CC1=C(C(=O)O)N2C(=O)[C@@H](NC(=O)[C@H](N)c3ccccc3)[C@H]2SC1 [cephalexin] |  |  |  |  |  |  |  |  |  | 32 to 64 (≈ 92.1 to 184 µM) | about 600 kHz | cell length increases as the concentration and action time increase | 32 (≈ 92.1 µM) | morphological cell elongation occurs obviously even at a low concentration of the antibiotic | some bacteria are slightly elongated | some bacteria are still arranged at the center of the electrodes by negative dielectrophoretic force. However, the others are adsorbed at the edges of the electrode by positive dielectrophoretic force and slightly elongated | all bacteria have become elongated | all bacteria are adsorbed at the edges of the electrode by positive dielectrophoretic force and have become elongated | distinction between morphological changes in bacteria is difficult | morphological cell elongation occurs obviously as the antibiotic concentrations increase
